Measurements reported in EPA's CvTdb concentration-time database.

How the values were obtained:
[1] = tested on: Rat; assay: concentration in brain after dosing; conditions: 0.5 h; dosed: Potassium Perfluorobutane Sulfonate; 20 mg/kg; oral; Male; Harlan Sprague Dawley
[2] = tested on: Rat; assay: concentration in liver after dosing; conditions: 1 h; dosed: Potassium Perfluorobutane Sulfonate; 20 mg/kg; oral; Female; Harlan Sprague Dawley
[3] = tested on: Rat; assay: concentration in plasma after dosing; conditions: dosed: Potassium Perfluorobutane Sulfonate, 4 mg/kg, oral, Male, Harlan Sprague Dawley
[4] = tested on: Rat; assay: concentration in plasma after dosing; conditions: dosed: Potassium Perfluorobutane Sulfonate, 4 mg/kg, iv, Male, F344
[5] = tested on: Rat; assay: concentration in plasma after dosing; conditions: 0.5 h; dosed: Potassium Perfluorobutane Sulfonate; 4 mg/kg; iv; Male; F344
[6] = tested on: Rat; assay: concentration in plasma after dosing; conditions: dosed: Potassium Perfluorobutane Sulfonate, 4 mg/kg, iv, Male, F344; remark: listed apart in the source
[7] = tested on: Rat; assay: concentration in kidney after dosing; conditions: 0.5 h; dosed: Potassium Perfluorobutane Sulfonate; 20 mg/kg; oral; Female; Harlan Sprague Dawley
[8] = tested on: Rat; assay: concentration in plasma after dosing; conditions: 5 min; dosed: Nitrite; 80 mg/kg; oral; Female; F344
[9] = tested on: Rat; assay: concentration in plasma after dosing; conditions: 5 min; dosed: Nitrite; 40 mg/kg; oral; Female; F344
[10] = tested on: Rat; assay: concentration in plasma after dosing; conditions: dosed: Nitrite, 80 mg/kg, oral, Female, F344
[11] = tested on: Rat; assay: concentration in plasma after dosing; conditions: 10 min; dosed: Nitrite; 80 mg/kg; oral; Female; F344
[12] = tested on: Rat; assay: concentration in plasma after dosing; conditions: 5 min; dosed: Nitrite; 80 mg/kg; oral; Female; F344; remark: listed apart in the source
[13] = tested on: Rat; assay: concentration in plasma after dosing; conditions: 2 min; dosed: Nitrite; 80 mg/kg; oral; Female; F344
[14] = tested on: Rat; assay: concentration in plasma after dosing; conditions: dosed: 2-Hydroxy-4-methoxybenzophenone, 500 mg/kg, oral, Male, F344
[15] = tested on: Mouse; assay: concentration in plasma after dosing; conditions: 2 h; dosed: 2-Hydroxy-4-methoxybenzophenone; 50 mg/kg; iv; Male; B6C3F1
[16] = tested on: Mouse; assay: concentration in plasma after dosing; conditions: dosed: 2-Hydroxy-4-methoxybenzophenone, 100 mg/kg, oral, Female, B6C3F1
[17] = tested on: Rat; assay: concentration in plasma after dosing; conditions: dosed: 2-Hydroxy-4-methoxybenzophenone, 8 mg/kg, iv, Male, F344
[18] = tested on: Rat; assay: concentration in plasma after dosing; conditions: dosed: 2-Hydroxy-4-methoxybenzophenone, 100 mg/kg, oral, Female, F344
[19] = tested on: Mouse; assay: concentration in plasma after dosing; conditions: 0.25 h; dosed: 2-Hydroxy-4-methoxybenzophenone; 500 mg/kg; oral; Male; B6C3F1
[20] = tested on: Rat; assay: concentration in brain after dosing; conditions: 6 h; dosed: Perfluorooctanoic acid; 12 mg/kg; oral; Male; Harlan Sprague Dawley
[21] = tested on: Rat; assay: concentration in plasma after dosing; conditions: dosed: Fluorotelomer alcohol 8+2, 12 mg/kg, oral, Male, Harlan Sprague Dawley
[22] = tested on: Rat; assay: concentration in kidney after dosing; conditions: 3 h; dosed: Perfluorooctanoic acid; 12 mg/kg; oral; Male; Harlan Sprague Dawley
[23] = tested on: Rat; assay: concentration in kidney after dosing; conditions: 192 h; dosed: Perfluorooctanoic acid; 12 mg/kg; oral; Male; Harlan Sprague Dawley
[24] = tested on: Rat; assay: concentration in plasma after dosing; conditions: dosed: 678-39-7, 40 mg/kg, iv, Female, Harlan Sprague-Dawley
[25] = tested on: Rat; assay: concentration in plasma after dosing; conditions: dosed: 678-39-7, 40 mg/kg, iv, Male, F344
[26] = tested on: Rat; assay: concentration in plasma after dosing; conditions: dosed: 678-39-7, 40 mg/kg, iv, Female, Harlan Sprague-Dawley; remark: listed apart in the source
[27] = tested on: Rat; assay: concentration in kidney after dosing; conditions: 12 h; dosed: Perfluorooctanoic acid; 12 mg/kg; oral; Male; Harlan Sprague Dawley
[28] = tested on: rat; assay: concentration in lung after dosing (ugEq/g tissue); conditions: dosed: benzo[a]pyrene, iv, male, Wistar

O=S(=O)([O-])C(F)(F)C(F)(F)C(F)(F)C(F)(F)F.[K+] [Potassium Perfluorobutane Sulfonate]
Conditions | concentration in brain [ng/g] | concentration in kidney [ng/g] | concentration in liver [ng/g] | concentration in plasma [ng/mL]
[1] | 518 | – | – | –
[2] | – | – | 27800 | –
[5] | – | – | – | 12500
[7] | – | 26700 | – | –

concentration in plasma [ng/mL]
Conditions | 0.25 h | 3 h | 5 min | 6 h
[3] | – | 15100 | 320 | –
[4] | 26000 | – | – | 7280
[6] | – | 429 | 27500 | –

O=N[O-] [Nitrite]
Conditions | concentration in plasma [µg/mL]
[8] | 8.2
[9] | 9.5
[11] | 15.4
[12] | 18.7
[13] | 3.9

[10]
Conditions | concentration in plasma [µg/mL]
5 min | 6.9
8 h | 1.8

COc1ccc(C(=O)c2ccccc2)c(O)c1 [2-Hydroxy-4-methoxybenzophenone]
Conditions | concentration in plasma [µg/mL]
[14], 2.5 min | 0.0064
[14], 4 h | 0.578
[16], 0.25 h | 0.151
[16], 2 h | 0.0139
[16], 2.5 min | 0.0296
[16], 3 h | 0.00913
[16], 10 min | 0.0623
[17], 10 h | 0.00852
[17], 10 min | 3.77
[18], 3 h | 0.00719
[18], 10 min | 0.0382

Conditions | concentration in plasma [µg/mL]
[15] | 0.267
[19] | 0.468

O=C(O)C(F)(F)C(F)(F)C(F)(F)C(F)(F)C(F)(F)C(F)(F)C(F)(F)F [Perfluorooctanoic acid]
Conditions | concentration in brain [ng/g] | concentration in kidney [ng/g]
[20] | 1350 | –
[22] | – | 36800
[23] | – | 21000
[27] | – | 27000

Conditions | concentration in plasma
[21], 0.25 h | 27.2 ng/mL
[21], 6 h | 635 ng/mL
[24], 0.75 h | 1470 ng/mL
[24], 12 h | 372 ng/mL
[25], 0.25 h | 264 µg/mL
[25], 6 h | 108 µg/mL
[26], 1 h | 2620 ng/mL
[26], 24 h | 86.7 ng/mL

c1ccc2c(c1)cc1ccc3cccc4ccc2c1c34 [benzo[a]pyrene]
concentration in lung, [28]
Conditions | 2 mg/kg | 6 mg/kg | 15 mg/kg
0.5 h | 1.06 | 16 | 25.8
0.75 h | 2.68 | 5.85 | 13.7
1 h | 2.4 | 2.76 | 17
1.5 h | 1.07 | 5.3 | 38.5
2 h | 14.7 | 5.84 | 37
3 h | 0.34 | 0.4 | 7.07
4 h | 0.04 | 2.64 | 22.4
5 h | 0.68 | 12.4 | 33.2
5 min | 5.17 | 33.9 | 46
6 h | 0.06 | 6.27 | 22.6
8 h | 9.32 | 5.09 | 18.4
10 min | 1.31 | 13.6 | 26.1
20 min | 2.8 | 17.3 | 23.4
24 h | – | – | 10.2
32 h | – | 3.9 | 15.7
